The test system of series [1] is Agrostis stolonifera. Put plainly: Phytotoxicity against Agrostis stolonifera at 1 mg/ml. It is filed as functional, organism-based.
For the next series, the system named is Vero. The series is described as follows: Cytotoxicity against african green monkey Vero cells at 4760 ng/ml after 48 hrs by neutral red dye staining. It is filed as cell-based. The following applies: Chlorocebus sabaeus.
In another series the test system is SK-MEL. The series is described as follows: Cytotoxicity against human SK-MEL cells at 10 ug/ml after 48 hrs by neutral red dye staining. It is filed as functional, cell-based.
In series [2] the test system is Agrostis stolonifera. Put plainly: Phytotoxicity against Agrostis stolonifera at 0.1 mg/ml. The class given is functional, organism-based.
The nature of series [3]: Cytotoxicity against pig LLC-PK11 cells at 10 ug/ml after 48 hrs by neutral red dye staining. It is filed as functional, cell-based, Sus scrofa.
Series [4] deals with Agrostis stolonifera. The series is described as follows: Phytotoxicity against Agrostis stolonifera at 0.01 mg/ml. The class given is functional, organism-based.
Series [5] concerns Agrostis stolonifera. The series is described as follows: Phytotoxicity against Agrostis stolonifera at 0.001 mg/ml. The class given is functional, organism-based.
Series [6] concerns Lactuca sativa. The series is described as follows: Phytotoxicity against Lactuca sativa at 0.1 mg/ml. The class given is functional, organism-based.
The test system of series [7] is Lactuca sativa. Put plainly: Phytotoxicity against Lactuca sativa at 0.01 mg/ml. It is filed as functional, organism-based.
The test system of a further series is SK-OV-3. The series is described as follows: Cytotoxicity against human SKOV3 cells at 10 ug/ml after 48 hrs by neutral red dye staining. It is filed as functional, cell-based.
A further series deals with KB. The series is described as follows: Cytotoxicity against human KB cells at 10 ug/ml after 48 hrs by neutral red dye staining. The class given is functional, cell-based.
For series [8], the system named is Lactuca sativa. Put plainly: Phytotoxicity against Lactuca sativa at 0.001 mg/ml. It is filed as functional, organism-based.
Series [9] deals with Plasmodium falciparum. The series is described as follows: Antiplasmodial activity against chloroquine-sensitive Plasmodium falciparum D6 assessed as LDH activity at 4760 ng/ml after 72 hrs by malstat reagent method. It is filed as functional, organism-based.
The next series has as its system BT-549. Put plainly: Cytotoxicity against human BT549 cells at 10 ug/ml after 48 hrs by neutral red dye staining. It is filed as functional, cell-based.
In series [10] the test system is Plasmodium falciparum. The series is described as follows: Antiplasmodial activity against chloroquine-resistant Plasmodium falciparum W2 assessed as LDH activity at 4760 ng/ml after 72 hrs by malstat reagent method. The class given is functional, organism-based.

Activity calls are given as the source filed them. The calls are words filed in the database; no cut-off is given here.

For the compound `C=C1C(O)CC2[C@](C)(CCC[C@]2(C)C(=O)O)C1CC(=O)O` (stereo not given in full), the result with Agrostis stolonifera [1], in the series on Agrostis stolonifera [2], with Agrostis stolonifera [4], in the series on Agrostis stolonifera [5], in the series on Lactuca sativa [6] and in the series on Lactuca sativa [7] was inactive. Moreover, the outcome in the series with Lactuca sativa [8] was inactive. Moreover, the “inhibition (INH)” value with Vero was “Not Active”. In addition, the inhibition result in the series with SK-MEL, in the series with SK-OV-3, with KB, in the series on Plasmodium falciparum [9], with BT-549 and with Plasmodium falciparum [10] was “inactive” throughout. Also, the “Cytotoxicity at 10 ug/ml” value in series [3] was “Not Active”.

The values are drawn from ChEMBL document CHEMBL1153751, “Biologically active tetranorditerpenoids from the fungus Sclerotinia homoeocarpa causal agent of dollar spot in turfgrass” (J Nat Prod, 2009).
